# Earlier results as cited in patent US6645508B1, “Stable L-ascorbic acid composition” (priority 1999, dated 2003).
# Tested on: human skin fibroblasts
# Conditions: at concentrations equivalent to L-Ascorbic acid
structure (smiles),measurement,value
CCCCCCCCCCCCCCCC(=O)OC[C@H](O)[C@H]1OC(=O)C(O)=C1O [ascorbyl palmitate],effect on human skin fibroblasts,killed human skin fibroblasts
